Results published in ChEMBL document CHEMBL1149548, “Synthesis, SAR, and X-ray structure of novel potent DPPIV inhibitors: oxadiazolyl ketones” (Bioorg Med Chem Lett, 2007).

Assays:
[1] = target: Dipeptidyl peptidase 8 (Homo sapiens, UniProt Q6V1X1); experiment: Inhibition of DPP8
[2] = target: Dipeptidyl peptidase 2 (Homo sapiens, UniProt Q9UHL4); experiment: Inhibition of DPP2
[3] = test system: Rattus norvegicus; experiment: Inhibition of basal plasma DPP4 activity in Sprague-Dawley rat at 1 mg/kg after 24 hrs; details: read-out: Inhibition
[4] = test system: Rattus norvegicus; experiment: Inhibition of basal plasma DPP4 activity in Sprague-Dawley rat at 0.1 mg/kg after 1 hr; details: read-out: Inhibition
[5] = Cmax in rat at 5 mg/kg, po; assay type: ADME, organism-based; parameters: dose 5 mg/kg, route oral; details: in vivo
[6] = test system: Rattus norvegicus; experiment: Inhibition of basal plasma DPP4 activity in Sprague-Dawley rat at 0.03 mg/kg after 1 hr; details: read-out: Inhibition
[7] = test system: Rattus norvegicus; experiment: Inhibition of basal plasma DPP4 activity in Sprague-Dawley rat at 0.1 mg/kg after 24 hrs; details: read-out: Inhibition
[8] = Half life in monkey at 5 mg/kg, po; assay type: ADME, organism-based, Macaca mulatta; parameters: dose 5 mg/kg, route oral; details: rhesus monkey, in vivo
[9] = Plasma clearance in dog at 5 mg/kg, iv or 5 mg/kg, po; assay type: ADME, organism-based, Canis lupus familiaris
[10] = Half life in dog at 5 mg/kg, po; assay type: ADME, organism-based, Canis lupus familiaris; parameters: dose 5 mg/kg, route oral; details: in vivo
[11] = Bioavailability in dog at 5 mg/kg, po; assay type: ADME, organism-based, Canis lupus familiaris; details: in vivo
[12] = Half life in rat at 5 mg/kg, po; assay type: ADME, organism-based; parameters: dose 5 mg/kg, route oral; details: in vivo
[13] = test system: Rattus norvegicus; experiment: Inhibition of basal plasma DPP4 activity in Sprague-Dawley rat at 0.03 mg/kg after 24 hrs; details: read-out: Inhibition
[14] = test system: Rattus norvegicus; experiment: Inhibition of basal plasma DPP4 activity in Sprague-Dawley rat at 10 mg/kg after 1 hr; details: read-out: Inhibition
[15] = Bioavailability in rat at 5 mg/kg, po; assay type: ADME, organism-based; details: in vivo
[16] = Volume of distribution at steady state in rat at 5 mg/kg, iv or 5 mg/kg, po; assay type: ADME, organism-based; details: in vivo, read-out: Vdss
[17] = Plasma clearance in monkey at 5 mg/kg, iv or 5 mg/kg, po; assay type: ADME, organism-based, Macaca mulatta; details: rhesus monkey
[18] = Bioavailability in monkey at 5 mg/kg, po; assay type: ADME, organism-based, Macaca mulatta; details: rhesus monkey, in vivo
[19] = test system: Rattus norvegicus; experiment: Inhibition of basal plasma DPP4 activity in Sprague-Dawley rat at 1 mg/kg after 1 hr; details: read-out: Inhibition
[20] = Volume of distribution at steady state in dog at 5 mg/kg, iv or 5 mg/kg, po; assay type: ADME, organism-based, Canis lupus familiaris; details: in vivo, read-out: Vdss
[21] = Cmax in monkey at 5 mg/kg, po; assay type: ADME, organism-based, Macaca mulatta; parameters: dose 5 mg/kg, route oral; details: rhesus monkey, in vivo
[22] = Volume of distribution at steady state in monkey at 5 mg/kg, iv or 5 mg/kg, po; assay type: ADME, organism-based, Macaca mulatta; details: rhesus monkey, in vivo, read-out: Vdss
[23] = Plasma clearance in rat at 5 mg/kg, iv or 5 mg/kg, po; assay type: ADME, organism-based
[24] = test system: Rattus norvegicus; experiment: Inhibition of basal plasma DPP4 activity in Sprague-Dawley rat at 10 mg/kg after 24 hrs; details: read-out: Inhibition

Chain of Dipeptidyl peptidase 8 (Q6V1X1 whole entry): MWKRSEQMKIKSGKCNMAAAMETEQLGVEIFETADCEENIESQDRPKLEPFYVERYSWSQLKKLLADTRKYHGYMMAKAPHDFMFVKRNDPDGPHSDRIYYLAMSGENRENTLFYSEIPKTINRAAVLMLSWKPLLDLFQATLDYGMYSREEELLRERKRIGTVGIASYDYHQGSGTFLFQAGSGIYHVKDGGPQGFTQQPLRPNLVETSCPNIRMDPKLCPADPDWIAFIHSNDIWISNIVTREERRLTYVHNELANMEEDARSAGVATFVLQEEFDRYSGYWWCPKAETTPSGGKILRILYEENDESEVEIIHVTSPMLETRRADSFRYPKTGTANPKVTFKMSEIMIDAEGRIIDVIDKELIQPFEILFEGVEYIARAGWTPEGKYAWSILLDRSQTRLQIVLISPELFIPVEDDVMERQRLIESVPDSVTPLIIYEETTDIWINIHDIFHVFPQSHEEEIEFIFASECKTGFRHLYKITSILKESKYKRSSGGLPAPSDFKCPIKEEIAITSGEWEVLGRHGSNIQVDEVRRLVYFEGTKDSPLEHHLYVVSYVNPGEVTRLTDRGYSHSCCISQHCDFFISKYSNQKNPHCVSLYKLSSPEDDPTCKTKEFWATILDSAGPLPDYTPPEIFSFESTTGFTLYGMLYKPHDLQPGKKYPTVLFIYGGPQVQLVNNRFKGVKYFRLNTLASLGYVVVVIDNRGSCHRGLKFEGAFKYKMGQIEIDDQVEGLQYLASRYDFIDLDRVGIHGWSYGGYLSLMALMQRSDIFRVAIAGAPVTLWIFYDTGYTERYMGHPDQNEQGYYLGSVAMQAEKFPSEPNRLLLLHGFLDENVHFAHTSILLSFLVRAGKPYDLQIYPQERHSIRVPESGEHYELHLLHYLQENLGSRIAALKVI

SMILES: CC(C)(C)NCC(=O)N1CCC[C@H]1C(=O)c1noc(-c2ccc(F)cc2)n1
- IC50 [1]: < 390 nM
- IC50 [2]: < 390 nM

SMILES: CC(C)(CO)NCC(=O)N1C[C@@H](F)C[C@H]1C(=O)c1nnc(C(C)(C)C)o1
- inhibition in vivo at 1 mg/kg [3]: 50%
- inhibition in vivo at 0.1 mg/kg [4]: 82%
- Cmax [5]: 30 ng/mL
- inhibition in vivo at 0.03 mg/kg [6]: 66%
- inhibition in vivo at 0.1 mg/kg [7]: 82%
- half-life [8]: 4.63 h
- clearance [9]: 71 mL/min/kg
- half-life [10]: 1.47 h
- bioavailability [11]: 87%
- half-life [12]: 4.15 h
- inhibition in vivo at 0.03 mg/kg [13]: 76%
- inhibition in vivo at 10 mg/kg [14]: 68%
- bioavailability [15]: 39%
- Vd [16]: 14 L/kg
- clearance [17]: 18 mL/min/kg
- bioavailability [18]: 35%
- IC50 [2]: 146000 nM
- inhibition in vivo at 1 mg/kg [19]: 46%
- Vd [20]: 4.87 L/kg
- Cmax [21]: 210 ng/mL
- Vd [22]: 2.42 L/kg
- clearance [23]: 241 mL/min/kg
- inhibition in vivo at 10 mg/kg [24]: 74%

SMILES: CC(C)(C)NCC(=O)N1C[C@@H](F)C[C@H]1C(=O)c1nnc(C2CCCCC2)o1
- IC50 [1]: < 390 nM
- IC50 [2]: < 390 nM

SMILES: CC(C)(C)NCC(=O)N1CCC[C@H]1C(=O)c1nnc(C2(C)CCCCC2)o1
- IC50 [1]: < 390 nM
- IC50 [2]: 8660 nM

SMILES: CC(C)(C)NCC(=O)N1CCC[C@H]1C(=O)c1noc(C2(C)CCCCC2)n1
- IC50 [1]: < 390 nM
- IC50 [2]: < 390 nM

SMILES: CC(C)(C)NCC(=O)N1CCC[C@H]1C(=O)c1nnc(C(C)(C)C)o1
- IC50 [2]: > 10000 nM

SMILES: Cc1cc(C)c(-c2nnc(C(=O)[C@@H]3CCCN3C(=O)CNC(C)(C)C)o2)c(C)c1
- IC50 [1]: < 390 nM
- IC50 [2]: < 390 nM

SMILES: CCC(C)(C)c1nnc(C(=O)[C@@H]2C[C@H](F)CN2C(=O)CNC(C)(C)C)o1
- IC50 [1]: < 390 nM
- IC50 [2]: 97200 nM
